Measured values reported in patent US10493060B2, “Spirocyclic compounds” (ZENO ROYALTIES & MILESTONES, LLC, priority 2015, dated 2019).
pIC50: −log10 of the molar value.

Assays:
[1] = system: Colo-205 (colon cancer) cells; assay: Proliferation assay (CellTiter-Glo), Colo-205; format: cell-based; details: Homo sapiens, COLO 205, 72 h, Colo205 cells, 3 days
Protocol: (§1) A375 (melanoma), Colo-205 (colon cancer), Miapaca (pancreatic), HPAFII (pancreatic), sNF02.0 (neurofibromatosis type 1), sNF96.2 (neurofibromatosis type 1) and 8505 (Thyroid) cells were grown and maintained in RPMI-1640 medium containing 100 U/mL penicillin-streptomycin and 10% fetal bovine serum. Cells were in growth medium in 96-well opaque-walled clear bottom plates and incubated the in the CO2 incubator overnight before treatment. Cells were treated with compounds diluted in DMSO and a 10 point 3-fold serial dilutions were done. Plates were placed in 37° C., 5% CO2 for to incubate for 3 days. Before they were developed by adding 100 μL of CellTiter-Glo reagent (Promega) to the assay plate, plates were shaken briefly for 2 mins and allowed to incubate at rt for 10 mins. The bottom of the plates was pasted with white back seal and luminescence was recorded with Flexstation3 with setting of luminescence, integration time 500 ms.

A375 (melanoma) cells = assay: Proliferation assay (CellTiter-Glo), A375; format: cell-based; details: Homo sapiens, A-375, 72 h, 3 days
Protocol: as §1

[2] = system: HPAFII (pancreatic) cells; assay: Proliferation assay (CellTiter-Glo), HPAFII; format: cell-based; details: Homo sapiens, HPAF-II, 72 h, 3 days
Protocol: as §1

8505C (Thyroid) cells = assay: Proliferation assay (CellTiter-Glo), 8505C; format: cell-based; details: Homo sapiens, 72 h, 8505C cells, 3 days
Protocol: as §1

Activated ERK2 = Activated ERK2 (Homo sapiens (Human), UniProt P28482); assay: Active ERK2 kinase assay (Mobility Shift Assay); format: biochemical
Chain of Activated ERK2 (P28482 whole entry): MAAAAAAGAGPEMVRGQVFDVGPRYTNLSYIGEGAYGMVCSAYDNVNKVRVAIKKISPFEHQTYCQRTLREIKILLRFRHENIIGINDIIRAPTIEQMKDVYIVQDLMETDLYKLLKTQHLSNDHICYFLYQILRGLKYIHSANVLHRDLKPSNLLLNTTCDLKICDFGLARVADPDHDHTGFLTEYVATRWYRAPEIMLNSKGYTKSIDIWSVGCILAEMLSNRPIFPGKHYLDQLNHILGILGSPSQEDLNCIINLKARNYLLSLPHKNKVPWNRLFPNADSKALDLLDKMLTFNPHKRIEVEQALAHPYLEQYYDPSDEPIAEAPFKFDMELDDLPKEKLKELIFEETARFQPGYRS
How it was run: (§2)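 Readout is LabChip mobility-shift, product ratio P/(P+S) from peak heights after a 1 h rt kinase reaction started by adding fluorescent substrate, ATP and metal. Beforehand, enzyme and compound were incubated 30 min at rt in HEPES pH7.5 buffer containing Triton X-100 and DTT.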

Activated ERK1 = Activated ERK1 (Homo sapiens (Human), UniProt P27361); assay: Active ERK1 kinase assay (Mobility Shift Assay); format: biochemical
Chain of Activated ERK1 (P27361 whole entry): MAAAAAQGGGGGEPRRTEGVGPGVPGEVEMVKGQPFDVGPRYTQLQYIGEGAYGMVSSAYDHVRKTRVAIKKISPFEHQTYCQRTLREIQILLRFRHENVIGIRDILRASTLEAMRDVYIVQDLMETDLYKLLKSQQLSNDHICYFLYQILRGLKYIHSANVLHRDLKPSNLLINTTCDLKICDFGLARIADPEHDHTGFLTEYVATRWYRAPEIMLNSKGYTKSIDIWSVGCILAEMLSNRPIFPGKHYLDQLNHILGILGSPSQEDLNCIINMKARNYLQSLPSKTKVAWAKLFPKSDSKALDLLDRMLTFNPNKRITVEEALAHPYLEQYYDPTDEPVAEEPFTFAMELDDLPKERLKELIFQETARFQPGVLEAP
How it was run: as §2

[3] = system: sNF02.2 (neurofibromatosis type 1) cells; assay: Proliferation assay (CellTiter-Glo), sNF02.2; format: cell-based; details: 72 h, sNF02.2 cells, 3 days
Protocol: as §1

[4] = system: Mia Paca-2 (pancreatic) cells; assay: Proliferation assay (CellTiter-Glo), Mia Paca-2; format: cell-based; details: Homo sapiens, 72 h, Mia Paca-2 cells, 3 days
Protocol: as §1

[5] = system: sNF96.2 (neurofibromatosis type 1) cells; assay: Proliferation assay (CellTiter-Glo), sNF96.2; format: cell-based; details: 72 h, sNF96.2 cells, 3 days
Protocol: as §1

pIC50 [1]	pIC50 (A375 (melanoma) cells)	pIC50 (Activated ERK2)	pIC50 (Activated ERK1)	pIC50 [4]	Structure (SMILES)	pIC50 [2]	pIC50 (8505C (Thyroid) cells)	pIC50 [3]	pIC50 [5]
≥ 6.30	≥ 6.30	≥ 7.30	≥ 7.30	≥ 6.30	CC(C)Oc1ccc(-c2n[nH]c3ccc(N4CC[C@]5(CCN(CC(=O)N6CC=C(c7ccc(-c8ncn(C)n8)cc7)CC6)C5)C4=O)cc23)cn1 [Example 10, (S)-2-(3-(6-Isopropoxypyridin-3-yl)-1H-indazol-5-yl)-7-(2-(4-(4-(1-methyl-1H-1,2,4-triazol-3-yl)phenyl)-3,6-dihydropyridin-1 (2H)-yl)-2-oxoethyl)-2,7-diazaspiro[4.4]nonan-1-one]	≥ 6.30	≤ 6.00	≤ 6.00	6.00 to 6.30
≥ 6.30	≥ 6.30	≥ 7.30	≥ 7.30	≥ 6.30	Cc1cc(-c2n[nH]c3ccc(N4CC[C@]5(CCN(CC(=O)N6CC=C(c7ccc(-c8ncn(C)n8)cc7)CC6)C5)C4=O)cc23)ccn1 [Example 8, (S)-7-(2-(4-(4-(1-Methyl-1H-1,2,4-triazol-3-yl)phenyl)-3,6-dihydropyridin-1(2H)-yl)-2-oxoethyl)-2-(3-(2-methylpyridin-4-yl)-1H-indazol-5-yl)-2,7-diazaspiro[4.4]nonan-1-one]	≥ 6.30	≥ 6.30	≥ 6.30	≥ 6.30
≥ 6.30	≥ 6.30	–	≥ 7.30	≥ 6.30	CC(C)Nc1cc(-c2c[nH]c(C(=O)N[C@H](CO)c3cccc(Cl)c3)c2)c(Cl)cn1 [BVD-523]	≥ 6.30	≤ 6.00	≤ 6.00	6.00 to 6.30
